# “And” between values parts separate entries of the source, which are not always exact repeats. Equal values may be shown once. “Also recorded” adds a separate entry of the source. Read-outs that look alike come from different tables or passages of the source.
# Columns and labels:
# [1] = system: Ehrlich ascites carcinoma (EAC); assay: Anti-tumour effect of DXR complexes on Ehrlich ascites carcinoma growth in ICR mice (i.v. days 2, 4, 6; tumour cells counted day 8); assay type: in vivo; details: DXR 3.5 mg/kg; C4 22.5 mg/kg or C5 12 mg/kg
# Protocol: Random-bred albino mice of line ICR, male and female, from own rearing were used in the study. The room for animal housing was provided with filtered air at 15 changes per hour, a temperature of 19-21° C., relative humidity of 50-60% and regulated light day of 12 hours with change of light and darkness at 6 a.m. and 6 p.m. The mice were kept in transparent polycarbonate cages with a floor area of 600 cm^2 containing softwood sawdust bedding. […] The mice aged 2-2.5 months and having a weight of 19-22 g were randomly distributed in the control and test groups, standardised by mean weights. The control and test groups included 10 and 7 animals correspondingly. The mice of each group were identified by specific ear marks. The cages with animals of each group were identified by cage cards marked with the study date, group number, number and sex of the animals.
# The strain of EAC was propagated in ICR mice by intraperitoneal inoculation of 0.2 ml native ascites fluid or 0.5 ml ascites fluid diluted by saline to 1:1 from one or two animals with intraperitoneally growing EAC on day 7. Ascites fluids contained more 98% of viable tumour cells according to trypan blue exclusion test. For the each study the suspension of EAC cells in sterile saline in concentration of 10^7 viable tumour cells/ml was prepared in aseptic conditions from ascites fluid of mouse bearing of EAC on day 7.
# The mice of each control and experimental groups were inoculated by intraperitoneal injection of 2×10^6 EAC cells in volume of 0.2 ml at day 0. Intravenous injections for the study were carried out in lateral tail vein of mice once every other day, three times (day 2, 4 and 6) following inoculation of EAC cells. The mice of control group were injected by vehicle in volume of 2.5 ml/kg of body weight (50 μl to mouse of 20 g body weight) intravenously (negative control).
# The mice were killed by cervical dislocation two days later after the final treatment with the test complexes on day 8. Ascites fluids were removed, collected, their volumes were recorded, and abdominal cavities were washed by saline 6-7 times and both fluids were pooled. After centrifugation at 1000 r.p.m. for 10 min volumes of tumour cell pellet were also recorded. Number of viable tumour cells was counted by hemocetometer. Means and standard errors for each groups were calculated. Comparison of tumour cell number in control and test groups was carried out using Student's t-test. The influence of tested preparations on EAC growth inhibition was evaluated by the following formula: [formula]
# [2] = system: EAC cells; assay: Antitumor effect of compound 1 and doxorubicin on EAC in C3H mice (Example 20); assay type: in vivo; details: for Ascites volume / Tumor cell quantity / EAC growth inhibition, % to control: days 2, 4, 6, day 9
# Protocol: 20-22 g males of C3H mice were used. Control and experimental groups included 7 animals, which were inoculated 5×10^6 EAC cells i.p. in volume 0.2 ml at day 0. […] One group of mice was untreated control. Results of experiment were accounted on ninth day. Mice were killed by cervical dislocation. Ascitic fluids were removed, collected, their volumes were measured, and abdominal cavities were washed by saline solution 6-7 times. Thus obtained fluids were pooled. The number of viable tumor cells was counted by hemocytometer, using trypan blue exclusion test. The mean and the standard mean error was calculated for each group of mice. Comparison of tumor cell number in control and experimental groups was carried out using Student t-test. Influence of tested preparation on EAC growth inhibition was evaluated by: [formula]
# [3] = system: EAC; assay: Effect of compound 1 with AFP on growth of EAC in C3H mice (Example 21); assay type: in vivo; details: compound 1 1 mg/kg (20 μg/mouse) i.v. ×3, AFP none
# Protocol: The influence of compound with different amount of AFP on the growth of EAC was studied. The experiments were carried out on inbred C3H mice having initial weight of 20-23 g. The used tumor cell strain was supported by i.p. passages to mice of the same line. At the beginning of the research (day 0) four groups, each of which contained 7 mice, were formed. All of the animals were inoculated by tumour cells in saline solution i.p. (5·10^6 cells in 0,2 ml per a mouse).
# The first group of animals was untreated (negative control). The mice were injected by NMS. […] The animals of third and fourth groups were injected the same dose of compound 1, the protein being added to NMS (2,5 and 5 μg/mouse, accordingly). On the ninth day after inoculation by EAC cells the mice were killed and ascitic fluids were collected and estimated quantitatively. Tumor cells suspensions were prepared and aliquotes were mixed with equal volume of 0,1% trypan blue solution. The quantity of tumor cells were counted with hemocytometer.
# Results of the experiments were evaluated by means of variation statistics method using Student t-test. The values of inhibiting effects of the preparations were represented as percentage in comparison with control.
# [4] = system: EAC; details: for EAC growth inhibition / number of tumour cells: days 2, 4, 6, day 9
# [5] = dose 20 μg/mouse i.v. (doxorubicin equivalent, 1 mg/kg)
# [6] = dose 20 μg/mouse i.v. (doxorubicin equivalent, 1 mg/kg), 1 mg/kg
# [7] = dose 50 μg/mouse i.v. (doxorubicin equivalent, 2.5 mg/kg)
# [8] = dose 100 μg/mouse i.v. (doxorubicin equivalent, 5 mg/kg)
# [9] = doses corresponding to 1 and 2.5 mg/kg of doxorubicin
# [10] = doxorubicin dose 1 mg/kg i.v. in NMS
# [11] = doxorubicin dose 2.5 mg/kg i.v. in NMS
SMILES,influence of the compound on the anti-tumour action of DXR in the DXR/compound complex [1],"Ascites volume [2, 5]","Tumor cell quantity [2, 5]","EAC growth inhibition, % to control [2, 6]","Ascites volume [2, 7]","Tumor cell quantity [2, 7]","Ascites volume [2, 8]","Tumor cell quantity [2, 8]","EAC growth inhibition [4, 10]","number of tumour cells [4, 10]","number of tumour cells [4, 11]",further results
"CCCCC/C=C\C/C=C\C/C=C\C/C=C\CCCC(=O)NCCOP(=O)(O)O [C5, N-arachidonoyl-o-phospho-2-aminoethanol]",canceled the anti-tumour action of DXR; also recorded: cancelled the anti-tumour action of DXR,–,–,–,–,–,–,–,–,–,–,–
"CC/C=C\C/C=C\C/C=C\C/C=C\C/C=C\C/C=C\CCC(=O)N[C@H](C(=O)O)[C@@H](C)OP(=O)(O)O [C11, N-docosahexaenoyl-o-phospho-L-threonine]",canceled the anti-tumour action of DXR,–,–,–,–,–,–,–,–,–,–,–
"COc1cccc2c1C(=O)c1c(O)c3c(c(O)c1C2=O)CC(O)(C(=O)CO)CC3OC1CC(NC(=O)/C=C(C)/C=C/C=C(C)/C=C/C2=C(C)CCCC2(C)C)C(O)C(C)O1 (stereo not drawn) [Compound 1, N-(all-trans-retinoyl)-doxorubicin]",–,3.50 ± 1.30 mL,640.0 ± 78.04 × 10^6,47.3%,2.10 ± 1.70 mL,535.0 ± 167.90 × 10^6,3.30 ± 1.20 mL,571.4 ± 66.96 × 10^6,–,–,–,"EAC growth inhibition, % to control ([2]; dose 20 μg/mouse i.v. (doxorubicin equivalent, 1 mg/kg), listed as compound 1, 1 mg/kg): 47%; EAC growth inhibition, % to control ([2]; dose 50 μg/mouse i.v. (doxorubicin equivalent, 2.5 mg/kg), 2.5 mg/kg): 55.9%; EAC growth inhibition, % to control ([2]; dose 50 μg/mouse i.v. (doxorubicin equivalent, 2.5 mg/kg), listed as compound 1, 2.5 mg/kg): 57% and 56%; EAC growth inhibition, % to control ([2]; dose 100 μg/mouse i.v. (doxorubicin equivalent, 5 mg/kg), 5 mg/kg): 52.9%; EAC growth inhibition, % to control ([2]; dose 100 μg/mouse i.v. (doxorubicin equivalent, 5 mg/kg), listed as compound 1, 5 mg/kg): 53%; anti-tumour effect towards EAC [2, 9]: exerts high anti-tumour effect towards EAC; Ascites volume [3]: 2.0 ± 0.25 mL; Tumor cell quantity [3]: 1185.7 ± 266.2 × 10^6; EAC growth inhibition, % to control ([3]; 1 mg/kg): 45.0%; EAC growth inhibition, % to control ([3]; listed as compound 1, 1 mg/kg): 45%"
"COc1cccc2c1C(=O)c1c(O)c3c(c(O)c1C2=O)C[C@@](O)(C(=O)CO)C[C@@H]3O[C@H]1C[C@H](NC(=O)\C=C(C)/C=C/C=C(C)/C=C/C2=C(C)CCCC2(C)C)[C@H](O)[C@H](C)O1 (relative stereo) [Compound 2, N-(13-cis-retinoyl)-doxorubicin]",–,–,–,–,–,–,–,–,45.3%,533.5±94.23 ×10^6,405.7±120.62 ×10^6,"antitumor effect in respect to EAC [4, 9]: exceeding the effect of doxorubicin alone; EAC growth inhibition [4, 11]: 58.4%"
"COc1cccc2c1C(=O)c1c(O)c3c(c(O)c1C2=O)C[C@@](O)(C(=O)CO)C[C@@H]3O[C@H]1C[C@H](N)[C@H](O)[C@H](C)O1 [DXR, doxorubicin, reference compound]",–,2.85 ± 1.35 mL,765.8 ± 127.52 × 10^6,36.9%,1.85 ± 1.10 mL,662.1 ± 99.17 × 10^6,0.80 ± 0.60 mL,350.0 ± 108.21 × 10^6,34.8%,635.9±122.78 ×10^6,537.4±92.89 ×10^6,"EAC growth inhibition, % to control [2, 8]: 71.2%"
"CC1=C(/C=C/C(C)=C/C=C/C(C)=C/C(=O)N[C@@H](Cc2ccc(OP(=O)(O)O)cc2)C(=O)O)C(C)(C)CCC1 (stereo in doubt) [C4, N-(all-trans-retinoyl)-o-phospho-L-tyrosine]",cancelled the anti-tumour action of DXR,–,–,–,–,–,–,–,–,–,–,–

# — patent US6358936B2, “Compounds for the treatment of cancer” (Ardenia Investments, Ltd., priority 1998, dated 2002)
